From patent US9532983B2, “Benzofuran compounds, compositions, kits and/or methods thereof” (Savannah State University, priority 2013, dated 2017)
Several values for one entry are separate records, joined by “and”; a condition that tells them apart may be missing. Equal entries are not always repeated. Entries after “also recorded” stand apart in the source; their conditions may differ.

Columns and labels:
[1] = biological target: T1, D3 (Homo sapiens, UniProt P35462); assay: Primary binding assay at non-sigma receptors: D3; conditions: 10 μM (final) assay concentration
T1 construct: expressed in transfected cells
Method: Initial primary binding screening assays were performed using a 50 μM (initial)−10 μM (final) assay concentration of reference and test compounds.

[2] = biological target: T2, σ1 receptor (Rattus norvegicus, UniProt Q9R0C9); assay: Secondary binding assay, Ki determination at σ1 receptor ([3H]pentazocine); conditions: rat brain homogenate, read-out: σ-1 (Ki)
T2 construct: crude membrane fractions prepared from rat brain homogenate for σ1 receptors; from tissue; host or cells: rat brain homogenate, crude membrane fraction

[3] = biological target: T3, σ2 receptor (Rattus norvegicus, UniProt Q5U3Y7); assay: Secondary binding assay, Ki determination at σ2 receptor ([3H]DTG, PC12 cell homogenates); conditions: read-out: σ-2 (Ki)
T3 construct: PC12 cell homogenates for σ2 receptors were added to the wells; endogenous in cells; host or cells: PC12 cell homogenate
T3 sequence (Q5U3Y7 1-176): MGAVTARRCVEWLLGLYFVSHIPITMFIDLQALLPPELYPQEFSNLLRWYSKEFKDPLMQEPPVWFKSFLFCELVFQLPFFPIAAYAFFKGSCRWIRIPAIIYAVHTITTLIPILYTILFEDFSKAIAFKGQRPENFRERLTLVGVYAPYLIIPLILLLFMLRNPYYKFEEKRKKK
Method: Secondary binding assays, Ki determinations were performed by measuring the inhibition of radioligand binding by various concentrations of test and reference compound. […] [^3H]Pentazocine (3 nM) was used as the radioligand for σ1 receptors and [^3H]Ditolyglguanidine (DTG) (1 nM) as the radioligand for σ2 receptors. Aliquots (50 μl) of radioligand were dispensed into the wells of a 96-well plate containing 100 μl of Standard Binding Buffer. Then, duplicate 50-μl aliquots of the test and reference compound dilutions were added. Finally, either crude membrane fractions prepared from rat brain homogenate for σ1 receptors or PC12 cell homogenates for σ2 receptors were added to the wells, and the plates shielded from light to prevent photolysis of light sensitive ligands.
For σ1 receptors, the reactions were incubated at 37° C. for 2.5 h, and for σ2 receptors, the reactions were incubated at room temperature for 2 h. Labeled receptors were harvested by rapid filtration on to Whatman GF/B glass filters pre-soaked with 0.3% polyethyleneimine using 96-well Brandel harvester. Four rapid 500 μl washes are performed with chilled Standard Binding buffer to reduce non-specific binding. Filters were placed in 6-ml scintillation tubes and allowed to dry overnight. EcoScint scintiallation cocktail (National Diagnostics) was added to each tube prior to counting. […] The filter mats were dried, the scintillate melted onto the filters and the radioactivity counted in a Microbeta scintillation counter.
Raw data (dpm) representing total radioligand binding (i.e., specific+nonspecific binding) were plotted as a function of the logarithm of the molar concentration of the competitor (i.e., test or reference compound).

[4] = Cell viability assay (MTT) in MA-10 cells; format: cell-based, mouse; conditions: mouse, MA-10 Leydig cells, read-out: decrease in cell viability
Method: (§1) Mouse Leydig cell line (MA-10) was grown in Waymouth media containing 15% horse serum, 5% fetal bovine serum, and 1× gentamycin, which was replaced with 250 mg/ml G418 (geneticin) for VDAC1 knockdown (ΔVDAC1) MA10 cells. Cells were maintained at 37° C. in a humidified incubator under 5% CO2. To isolate mitochondria, cells were removed from tissue culture plates by gentle scrapping in phosphate-buffered saline at room temperature, incubated in hypotonic buffer (10 mM HEPES, pH 7.4) for 30 to 40 min, and mitochondria were isolated following readily available procedures. The mitochondrial preparation was verified by Western blotting with the cytochrome P450 SCC enzyme (Corgen, Tapai, Taiwan) and calnexin antibodies (Santa Cruz Biotechnology, Inc., Santa Cruz, Calif.).
Stock solutions (1 mM) of the ligands were made in 1× phosphate buffered saline, filter-sterilized, and then further diluted up to 1 μM with serum-free medium. Cell viability was determined by the 3-[4,5-dimethylthiazol-2yl]-2,5-diphenyltetrazolium bromide assay using a commercially available kit following the manufacturer's instructions (Promega, Madison, Wis.). MA-10 cells were plated in a 96-well plate at an initial density of 4×10^3 cells per well for 24 h at 37° C. in 5% CO2 atm. After 24 h of serum starvation, the culture media were changed to serum-free media containing 1, 5, 10, 50, and 100 nM concentration for each KSCM ligand. Next, the cells were incubated for 2 to 3 h with 0.5 mg/ml of 3-[4,5-dimethylthiazol-2yl]-2,5-diphenyltetrazolium bromide reagent and lysed with dimethyl sulfoxide, and the absorbance was measured at 550 nm (FlexStation 3; Molecular Devices, Sunnyvale, Calif.).

[5] = system: σ1 receptor; assay: Western blot, expression of σ1 receptor in MA-10 cells; format: cell-based, mouse; conditions: 24 h, increasing concentrations
Method: as §1, with “Cells” for “Mouse Leydig cell line (MA-10) was grown in Waymouth media containing 15% horse serum, 5% fetal bovine serum, and 1× gentamycin, which was replaced with 250 mg/ml G418 (geneticin) for VDAC1 knockdown (ΔVDAC1) MA10 cells. Cells”
(§2) The membrane was blocked with 3% nonfat dry milk for 45 min, probed overnight with the primary antibodies, and then incubated with […] goat anti-rabbit or anti mouse IgG (Thermo Fisher Scientific, Waltham, Mass.). Signals were developed with chemiluminescent reagent (Thermo Fisher Scientific). For loading control of all Western blots, the membrane was stained with β-actin antibody, which was previously independently stained with StAR or 3-β-hydroxysteroid dehydrogenase (3βHSD2) or VDAC1 and VDAC2 antiserum. The band intensity was determined by using Image Quant 5.2 (Phosphorimager; GE Healthcare, Chalfont St. Giles, Buckinghamshire, UK). Densitometric calculation may reflect the ratio of σ1 or VDAC2 and β-actin following an established procedure that is readily available.
(§3) In addition, VDAC2 antibody (FIG. 3E) was used to probe and was compared with β-actin expression (FIG. 3F) of the same membrane.

[6] = system: 3βHSD2; assay: Western blot, expression of 3βHSD2 in MA-10 cells; format: cell-based, mouse; conditions: any concentration
Method: as §1
as §2, with “Protein (12.5 μg) was separated by 15% SDS-polyacrylamide gel electrophoresis and transferred to a polyvinylidinedifluoride membrane (Millipore Corporation, Billerica, Mass.). The membrane” for “The membrane”
as §3

[7] = system: StAR; assay: Western blot, expression of StAR in MA-10 cells; format: cell-based, mouse
Method: as §1
as §2, with “Protein (12.5 μg) was separated by 15% SDS-polyacrylamide gel electrophoresis and transferred to a polyvinylidinedifluoride membrane (Millipore Corporation, Billerica, Mass.). The membrane” for “The membrane”
The role of KSCM ligands on the expression of StAR in MA-10 cells was evaluated. In all the cases studied, both the 37-kDa unimported and the 30-kDa mitochondrial-imported, mature protein, were observed but not the 32-kDa transient intermediate protein. The same membrane was probed first with StAR antibody and then with β-actin antibody independently. […] Coimmunoprecipitation experiments were performed to determine whether there was a direct interaction between σ1 receptor and StAR or VDAC2. […] StAR is a 37-kDa protein and thus it is higher than the 28-kDa σ1 (FIG. 5A), confirming that StAR interaction with the σ1 receptor.

T2 sequence (Q9R0C9 whole entry): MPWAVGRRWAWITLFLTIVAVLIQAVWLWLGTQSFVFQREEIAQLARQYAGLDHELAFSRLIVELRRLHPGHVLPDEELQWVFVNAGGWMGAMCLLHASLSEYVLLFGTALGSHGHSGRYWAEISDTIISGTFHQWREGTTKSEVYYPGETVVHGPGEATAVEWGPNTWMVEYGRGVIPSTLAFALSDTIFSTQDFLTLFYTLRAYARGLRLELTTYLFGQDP
T1 sequence (P35462 whole entry): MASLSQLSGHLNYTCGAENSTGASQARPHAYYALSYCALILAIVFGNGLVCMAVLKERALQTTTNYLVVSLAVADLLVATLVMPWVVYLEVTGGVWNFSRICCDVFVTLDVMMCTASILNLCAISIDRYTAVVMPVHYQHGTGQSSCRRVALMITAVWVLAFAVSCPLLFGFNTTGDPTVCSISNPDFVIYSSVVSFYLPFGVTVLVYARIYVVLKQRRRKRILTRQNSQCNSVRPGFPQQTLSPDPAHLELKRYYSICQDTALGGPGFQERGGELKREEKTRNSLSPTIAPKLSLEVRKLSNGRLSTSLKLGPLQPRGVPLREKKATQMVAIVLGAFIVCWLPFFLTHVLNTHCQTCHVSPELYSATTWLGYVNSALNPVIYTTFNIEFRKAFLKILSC

| Structure (SMILES) | inhibition at 10 µM [1] | Ki [2] | Ki [3] | cytotoxicity at 24 h, 1 nM [4] | cytotoxicity at 24 h, 100 nM [4] | expression of the σ1 receptor (in words) [5] | level of 3βHSD2 (in words) [6] | expression of imported 30-kDa StAR (in words) [7] | expression of unimported 37-kDa StAR (in words) [7] | cytotoxicity at 24 h ([4]; 1-5 nM) |
| --- | --- | --- | --- | --- | --- | --- | --- | --- | --- | --- |
| COc1cc2oc(C(=O)N(CCCN3CCCCC3)c3ccccc3)c(C)c2cc1OC [KSCM-1, 5,6-Dimethoxy-3-methyl-N-phenyl-N-(3-(piperidin-1-yl)propyl)benzofuran-2-carboxamide] | 38.8% | 27 nM and 27.5 nM | 528 nM | 3.5% | 16% | increased expression; also recorded: increased with increasing concentrations | no change | unaffected | increased (and/or stabilized); also recorded: stabilizes the expression of unimported StAR |  |
| Cc1c(C(=O)N(CCCN2CCCCC2)c2ccccc2)oc2ccccc12 [KSCM-5, 3-Methyl-N-phenyl-N-(3-(piperidin-1-yl)propyl)benzofuran-2-carboxamide] |  |  | 16 nM | 28% | 74% | increased only minimally; also recorded: remained unchanged | no change | unchanged | not and unchanged |  |
| COc1ccc2c(C)c(C(=O)N(CCCN3CCCCC3)c3ccccc3)oc2c1 [KSCM-11, 6-Methoxy-3-methyl-N-phenyl-N-(3-(piperidin-1-yl)propyl)benzofuran-2-carboxamide] | 40.6% | 34 nM | 41 nM |  |  | increased expression; also recorded: moderately increased | no change | unchanged | not and unchanged | 3.3% |
